Test results: PubChem BioAssay (NCI)
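48-hour exposure; five concentrations; linearly interpolated endpoints. GI50: concentration for 50% inhibition of growth. TGI is the concentration that stops growth completely.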

Legend:
Experiment in all cases: DTP human tumour cell line panel, 48 h; in the data active = GI50 below about 0.43 µM; inactive = the rest
EKVX NSCLC = test system: EKVX NSCLC
HT29 colon = test system: HT29 colon
SNB-75 CNS = test system: SNB-75 CNS
RPMI-8226 leukemia = test system: RPMI-8226 leukemia
K-562 leukemia = test system: K-562 leukemia
RXF 393 renal = test system: RXF 393 renal
A498 renal = test system: A498 renal
SF-295 CNS = test system: SF-295 CNS
U251 CNS = test system: U251 CNS
IGROV1 ovarian = test system: IGROV1 ovarian
SW-620 colon = test system: SW-620 colon
NCI-H23 lung = test system: NCI-H23 lung
HCT-116 colon = test system: HCT-116 colon
A549 NSCLC = test system: A549 NSCLC
NCI/ADR-RES ovarian = test system: NCI/ADR-RES ovarian
UO-31 renal = test system: UO-31 renal
SF-268 CNS = test system: SF-268 CNS
BT-549 breast = test system: BT-549 breast
CCRF-CEM leukemia = test system: CCRF-CEM leukemia
SK-MEL-28 melanoma = test system: SK-MEL-28 melanoma
HOP-92 NSCLC = test system: HOP-92 NSCLC
NCI-H460 lung = test system: NCI-H460 lung
M14 melanoma = test system: M14 melanoma
UACC-257 melanoma = test system: UACC-257 melanoma
LOX IMVI melanoma = test system: LOX IMVI melanoma
HCT-15 colon = test system: HCT-15 colon
COLO 205 colon = test system: COLO 205 colon
OVCAR-3 ovarian = test system: OVCAR-3 ovarian
ACHN renal = test system: ACHN renal

Fc1cccc(COc2ccc(Nc3ncnc4sc(-c5cccs5)cc34)cc2Cl)c1
inactive: GI50 (EKVX NSCLC) 4.74 µM | GI50 (HT29 colon) 6.93 µM | GI50 (SNB-75 CNS) 4.17 µM | GI50 (RPMI-8226 leukemia) > 25 µM | GI50 (K-562 leukemia) > 25 µM | GI50 (RXF 393 renal) 4.37 µM | GI50 (A498 renal) 6.88 µM | GI50 (SF-295 CNS) 9.81 µM | GI50 (U251 CNS) 5.75 µM | GI50 (IGROV1 ovarian) 8.73 µM | GI50 (SW-620 colon) > 13.3 µM | GI50 (NCI-H23 lung) > 13.6 µM | GI50 (HCT-116 colon) 7.59 µM | GI50 (A549 NSCLC) 9.32 µM | GI50 (NCI/ADR-RES ovarian) 4.74 µM | GI50 (UO-31 renal) 5.78 µM | GI50 (SF-268 CNS) 11.4 µM | GI50 (BT-549 breast) 6.25 µM | GI50 (CCRF-CEM leukemia) > 25 µM | GI50 (SK-MEL-28 melanoma) 6.58 µM | GI50 (HOP-92 NSCLC) 3.3 µM | GI50 (NCI-H460 lung) 7.63 µM | GI50 (M14 melanoma) 7.66 µM | GI50 (UACC-257 melanoma) 1.42 µM | GI50 (LOX IMVI melanoma) > 14.6 µM | GI50 (HCT-15 colon) 9.11 µM | GI50 (COLO 205 colon) 1.42 µM | GI50 (OVCAR-3 ovarian) 0.77 µM | GI50 (ACHN renal) 3.24 µM
15.9 µM: TGI (U251 CNS)
> 21.7 µM: TGI (A498 renal)
12 µM: TGI (RXF 393 renal)
10.2 µM: TGI (HOP-92 NSCLC)
> 22.8 µM: TGI (SF-268 CNS) | TGI (SK-MEL-28 melanoma)
> 24.1 µM: TGI (UO-31 renal)
> 17.3 µM: TGI (NCI/ADR-RES ovarian)
> 25 µM: TGI (RPMI-8226 leukemia) | TGI (K-562 leukemia) | TGI (SF-295 CNS) | TGI (IGROV1 ovarian) | TGI (SW-620 colon) | TGI (NCI-H23 lung) | TGI (A549 NSCLC) | TGI (CCRF-CEM leukemia) | TGI (M14 melanoma) | TGI (LOX IMVI melanoma) | TGI (HCT-15 colon)
17.9 µM: TGI (HT29 colon)
10.5 µM: TGI (COLO 205 colon)
> 14 µM: TGI (UACC-257 melanoma)
15.6 µM: TGI (BT-549 breast)
> 23.8 µM: TGI (HCT-116 colon)
6.24 µM: TGI (OVCAR-3 ovarian)
> 20.4 µM: TGI (EKVX NSCLC)
7.24 µM: TGI (ACHN renal)
10 µM: TGI (SNB-75 CNS)
> 17 µM: TGI (NCI-H460 lung)
